Laboratory results from US11203597B2, “Crystalline spirocyclic compound, a dosage form containing, a method for using in treatment of disease, and a method for recrystallizing” (Altavant Sciences GmbH, priority 2018, dated 2021).
Values after ≈ are worked out from the molar mass of the structure shown.

Columns and labels:
Type in all cases: physicochemical
[1] = Solubility of Compound 1 in organic solvents other than MTBE/n-heptane; conditions: thermodynamic from solid
Experimental: Solubility and Form Measurement
The solubility of Compound 1 was evaluated in organic solvents other than MTBE/n-heptane mixtures. The form of the residual solids was examined by XRPD.

[2] = Competitive slurry of Form 1 and Form 3 in MTBE/n-heptane mixtures (XRPD)
Excerpt: Compound 1 was also subjected to competitive slurry experiments between Compound 1, Form 1 and Compound 1, Form 3 in MTBE/n-heptane mixtures as summarized in Table 7 below.

[3] = Stability of polymorph form by pH measurement when stirred in water
Experimental: Additional tests were performed to understand the differences between form 1 and 3. One of those tests was to check stability of polymorph form by pH measurement at several times when the different forms were stirred in water (Table 11). During the tests, any changes in polymorph form were checked.

[4] = Competitive slurry experiments in n-heptane (XRPD); conditions: slurry in 10 volumes of n-heptane
Experimental: Competitive slurry experiments were performed to ascertain if Compound 1 samples of Form 1 and mixtures of Form 1 and Form 3 can be converted to Form 3. Pure Form 1 and Form 3 were also tested. First, 700 mg of Compound 1 were added in different ratios to 10 volumes of n-heptane and stirred for […] (Table 2). After 16 hours and four days, the samples were checked for polymorphic form by XRPD. […]

[5] = Solubility determination by HPLC
Excerpt: Because of the small differences in solubilities, HPLC was used to measure the solubilities. The values were conformed to the shake-flask results. […] In alcohol, there was a difference in dissolution rate. This difference was not observed for aqueous solutions.

[6] = Shake-flask solubility determination with stepwise addition of solvent
Excerpt: The method applied was a shake-flask solubility determination with stepwise addition of the solvent until complete dissolution is observed visually.

Compound: CCOC(=O)[C@@H]1CC2(CCN(c3cc(O[C@H](c4ccc(Cl)cc4-c4ccccc4)C(F)(F)F)nc(N)n3)CC2)CN1 [Compound 1, (S)-ethyl 8-(2-amino-6-((R)-1-(5-chloro-[1,1′-biphenyl]-2-yl)-2,2,2-trifluoroethoxy)pyrimidin-4-yl)-2,8-diazaspiro[4.5]decane-3-carboxylate]
- solubility ([1]; EA/n-heptane 1:1, 10 °C, organic solvent or mixture): 422 mg/mL (≈ 715 mM)
- solubility ([1]; EA/n-heptane 1:3, 10 °C, organic solvent or mixture): 115 mg/mL (≈ 195 mM)
- solubility ([1]; EtOH/n-heptane 1:1, 10 °C, organic solvent or mixture): 396 mg/mL (≈ 671 mM)
- solubility ([1]; EtOH/n-heptane 1:3, 10 °C, organic solvent or mixture): 192 mg/mL (≈ 326 mM)
- solubility ([1]; IPA, 10 °C, organic solvent or mixture): 79.6 mg/mL (≈ 135 mM)
- solubility ([1]; IPA, 50 °C, organic solvent or mixture): > 518 mg/mL
- solubility ([1]; MTBE, 10 °C, organic solvent or mixture): > 211 mg/mL
- solubility ([1]; MTBE, 50 °C, organic solvent or mixture): > 615 mg/mL
- solubility ([1]; acetone/n-heptane 1:1, 10 °C, organic solvent or mixture): > 589 mg/mL
- solubility ([1]; acetone/n-heptane 1:3, 10 °C, organic solvent or mixture): 208 mg/mL (≈ 353 mM)
- solubility ([1]; n-butanol, 10 °C, organic solvent or mixture): 268 mg/mL (≈ 455 mM)
- solubility ([1]; n-butanol, 50 °C, organic solvent or mixture): > 758 mg/mL
- solubility ([1]; n-heptane, 50 °C, organic solvent or mixture): 9.5 mg/mL (≈ 16.1 mM)
- solubility ([1]; water, 50 °C): 1.2 mg/mL (≈ 2.03 mM)
- XRPD (1~2 hours) ([2]; MTBE/n-heptane 1/1(v/v), 45 °C): Form 3
- XRPD (19 hours) ([2]; MTBE/n-heptane 1/1(v/v), 45 °C): Form 3
- XRPD (1~2 hours) ([2]; MTBE/n-heptane 1/4(v/v), 10 °C): Form 1 +
- XRPD (65 hours) ([2]; MTBE/n-heptane 1/4(v/v), 10 °C): Form 3
- XRPD (1~2 hours) ([2]; MTBE/n-heptane 1/4(v/v), 45 °C): Form 1+
- XRPD (19 hours) ([2]; MTBE/n-heptane 1/4(v/v), 45 °C): Form 3
- XRPD (1~2 hours) ([2]; MTBE/n-heptane 1/5(v/v), 10 °C): Form 1 +
- XRPD (65 hours) ([2]; MTBE/n-heptane 1/5(v/v), 10 °C): Form 3
- XRPD (1~2 hours) ([2]; MTBE/n-heptane 1/5(v/v), 45 °C): Form +
- XRPD (65 hours) ([2]; MTBE/n-heptane 1/5(v/v), 45 °C): Form 3

Compound: CCOC(=O)[C@@H]1CC2(CCN(c3cc(O[C@H](c4ccc(Cl)cc4-c4ccccc4)C(F)(F)F)nc(N)n3)CC2)CN1 [ES928-59-1]
- pH (2 hours) [3]: 8.68
- pH (4 hours) [3]: 8.22
- pH (7 hours) [3]: 8.05

Compound: CCOC(=O)[C@@H]1CC2(CCN(c3cc(O[C@H](c4ccc(Cl)cc4-c4ccccc4)C(F)(F)F)nc(N)n3)CC2)CN1 [ES928-59-2]
- pH (2 hours) [3]: 8.26
- pH (4 hours) [3]: 7.75
- pH (7 hours) [3]: 7.76

Compound: CCOC(=O)[C@@H]1CC2(CCN(c3cc(O[C@H](c4ccc(Cl)cc4-c4ccccc4)C(F)(F)F)nc(N)n3)CC2)CN1 [ES928-59-3]
- pH (2 hours) [3]: 8.71
- pH (4 hours) [3]: 8.65
- pH (7 hours) [3]: 8.32

Compound: CCOC(=O)[C@@H]1CC2(CCN(c3cc(O[C@H](c4ccc(Cl)cc4-c4ccccc4)C(F)(F)F)nc(N)n3)CC2)CN1 [ES928-60-1]
- XRPD 16 hours [4]: Form 1
- XRPD 4 days [4]: Form 3

Compound: CCOC(=O)[C@@H]1CC2(CCN(c3cc(O[C@H](c4ccc(Cl)cc4-c4ccccc4)C(F)(F)F)nc(N)n3)CC2)CN1 [ES928-60-2]
- XRPD 16 hours [4]: Mixture 1
- XRPD 4 days [4]: Form 3

Compound: CCOC(=O)[C@@H]1CC2(CCN(c3cc(O[C@H](c4ccc(Cl)cc4-c4ccccc4)C(F)(F)F)nc(N)n3)CC2)CN1 [ES928-60-3]
- XRPD 16 hours [4]: Form 3
- XRPD 4 days [4]: Form 3

Compound: CCOC(=O)[C@@H]1CC2(CCN(c3cc(O[C@H](c4ccc(Cl)cc4-c4ccccc4)C(F)(F)F)nc(N)n3)CC2)CN1 [ES928-60-4]
- XRPD 16 hours [4]: Form 3
- XRPD 4 days [4]: Form 3

Compound: CCOC(=O)[C@@H]1CC2(CCN(c3cc(O[C@H](c4ccc(Cl)cc4-c4ccccc4)C(F)(F)F)nc(N)n3)CC2)CN1 [ES928-60-6]
- XRPD 16 hours [4]: Form 3
- XRPD 4 days [4]: Form 3

Compound: CCOC(=O)[C@@H]1CC2(CCN(c3cc(O[C@H](c4ccc(Cl)cc4-c4ccccc4)C(F)(F)F)nc(N)n3)CC2)CN1 [ES928-60-S]
- XRPD 16 hours [4]: Form 3
- XRPD 4 days [4]: Form 3

Compound: CCOC(=O)[C@@H]1CC2(CCN(c3cc(O[C@H](c4ccc(Cl)cc4-c4ccccc4)C(F)(F)F)nc(N)n3)CC2)CN1 [ES-928-62-1]
- solubility thermodynamic ([5]; buffer pH 1.2, pH 1.2, simulated gastric fluid, thermodynamic from solid, Buffer pH 1.2, read-out: Conc. Actual): 49 mg/mL (≈ 83 mM)

Compound: CCOC(=O)[C@@H]1CC2(CCN(c3cc(O[C@H](c4ccc(Cl)cc4-c4ccccc4)C(F)(F)F)nc(N)n3)CC2)CN1 [ES-928-62-4]
- Conc. Actual ([5]; Buffer pH 1.2): 46000 µg/mL

Compound: CCOC(=O)[C@@H]1CC2(CCN(c3cc(O[C@H](c4ccc(Cl)cc4-c4ccccc4)C(F)(F)F)nc(N)n3)CC2)CN1 [EdA-928-63-1]
- Conc. Actual ([5]; Ethanol Abs.): 129000 µg/mL

Compound: CCOC(=O)[C@@H]1CC2(CCN(c3cc(O[C@H](c4ccc(Cl)cc4-c4ccccc4)C(F)(F)F)nc(N)n3)CC2)CN1 [EdA-928-63-2]
- Conc. Actual ([5]; Ethanol Abs.): 58000 µg/mL

Compound: CCOC(=O)[C@@H]1CC2(CCN(c3cc(O[C@H](c4ccc(Cl)cc4-c4ccccc4)C(F)(F)F)nc(N)n3)CC2)CN1 [Form 1, (S)-ethyl 8-(2-amino-6-((R)-1-(5-chloro-[1,1′-biphenyl]-2-yl)-2,2,2-trifluoroethoxy)pyrimidin-4-yl)-2,8-diazaspiro[4.5]decane-3-carboxylate]
- solubility ([6]; 2-methyl-tetrahydrofuran, organic solvent or mixture, thermodynamic from solid, 2-methyl-tetrahydrofuran, read-out: Solubility): 97 to 970 mg/mL (≈ 164 to 1640 mM)
- solubility ([6]; 2-propanol): 98 to 980 mg/mL
- solubility ([6]; I-propanol): 101 to 1010 mg/mL
- solubility ([6]; N,N-dimethyl-acetamide, organic solvent or mixture, thermodynamic from solid, N,N-dimethyl-acetamide, read-out: Solubility): 96 to 960 mg/mL (≈ 163 to 1630 mM)
- solubility ([6]; acetic acid): 32 to 95 mg/mL
- solubility ([6]; acetone, organic solvent or mixture, thermodynamic from solid, acetone, read-out: Solubility): 96 to 960 mg/mL (≈ 163 to 1630 mM)
- solubility ([6]; acetonitrile, organic solvent or mixture, thermodynamic from solid, acetonitrile, read-out: Solubility): 99 to 990 mg/mL (≈ 168 to 1680 mM)
- solubility ([6]; dimethyl sulfoxide, organic solvent or mixture, thermodynamic from solid, dimethyl sulfoxide, read-out: Solubility): 101 to 1010 mg/mL (≈ 171 to 1710 mM)
- solubility ([6]; ethanol): 96 to 960 mg/mL
- solubility ([6]; ethyl acetate, organic solvent or mixture, thermodynamic from solid, ethyl acetate, read-out: Solubility): 101 to 1010 mg/mL (≈ 171 to 1710 mM)
- solubility ([6]; formic acid 99%, organic solvent or mixture, thermodynamic from solid, formic acid 99%, read-out: Solubility): 97 to 970 mg/mL (≈ 164 to 1640 mM)
- solubility ([6]; isopropyl acetate, organic solvent or mixture, thermodynamic from solid, isopropyl acetate, read-out: Solubility): 103 to 1030 mg/mL (≈ 175 to 1750 mM)
- solubility ([6]; methanol, organic solvent or mixture, thermodynamic from solid, methanol, read-out: Solubility): 99 to 990 mg/mL (≈ 168 to 1680 mM)
- solubility ([6]; methyl isobutyl, organic solvent or mixture, thermodynamic from solid, methyl isobutyl, read-out: Solubility): 99 to 990 mg/mL (≈ 168 to 1680 mM)
- solubility ([6]; methyl tert-butyl ether, organic solvent or mixture, thermodynamic from solid, methyl tert-butyl ether, read-out: Solubility): 102 to 1020 mg/mL (≈ 173 to 1730 mM)
- solubility ([6]; n-heptane, organic solvent or mixture, thermodynamic from solid, n-heptane, read-out: Solubility): < 10.1 mg/mL
- solubility ([6]; tetrahydrofuran, organic solvent or mixture, thermodynamic from solid, tetrahydrofuran, read-out: Solubility): 97 to 970 mg/mL (≈ 164 to 1640 mM)
- solubility ([6]; toluene, organic solvent or mixture, thermodynamic from solid, toluene, read-out: Solubility): 98 to 980 mg/mL (≈ 166 to 1660 mM)
- solubility ([6]; water, thermodynamic from solid, water, read-out: Solubility): < 10 mg/mL
- XRPD 16 hours [4]: remained as Form 1
- XRPD 4 days [4]: slowly converts to Form 3
